Experimental data taken from PubChem BioAssay AID1159564 (GlaxoSmithKline (GSK), 2015).
Active and inactive are the calls of the source. How the calls were made is not given here.

System: L. donovani-infected THP-1 macrophages, intracellular amastigote imaging
Test: antileishmanial activity in infected THP-1 macrophages – imaging, THP-1 host macrophages, host toxicity (AID 1159564)
[1] = measured here: THP-1 host cell toxicity
[2] = measured here: amastigotes per macrophage

SMILES | IC50 | IC50 [1] [µM] | IC50 [2] [µM]
Cc1ccc(NC(=O)C(C)n2nc([N+](=O)[O-])c(Br)c2C)cc1Cl (stereo not drawn) | > 50 µM (inactive) | > 50 | > 50
CN(Cc1nnnn1C1CCN(Cc2ccc(-n3ccnc3)cc2)CC1)c1ccc(F)cc1F | > 50 µM (inactive) | > 50 | 16
CCC(=O)N1N=C(c2ccc3c(c2)CCCC3)Sc2c1ncn2C(=O)CC | 3.2 µM | > 50 | 2.5
CN(C)CCN(C)Cc1ccc(Cl)cc1NS(=O)(=O)c1ccc(Cl)c(Cl)c1 | 6.3 µM | 32 | 4
COC(=O)c1ccc(-c2cnc3ccc(NCc4ccccn4)nn23)cc1 | > 50 µM (inactive) | 13 | 16
FC(F)(F)c1cc(C2CCCN(Cc3c[nH]c4ccccc34)C2)nc2ncnn12 (stereo not drawn) | > 50 µM (inactive) | 16 | > 50
CCc1cccc(CC)c1-n1c(SCC(=O)NC(=O)NCc2ccco2)nnc1-c1cccnc1 | > 50 µM (inactive) | > 50 | > 50
N#Cc1cccc(CN2CCC(N(Cc3cccnc3)C(=O)c3cc(F)c(F)cc3F)CC2)c1 | > 50 µM (inactive) | > 50 | 13
O=C(Nc1nc(-c2ccccn2)cs1)c1ccccc1-n1cnnn1 | 6.3 µM | 5 | 4
c1ccc2[nH]c(-c3ccc(N4CCCC4)nc3)nc2c1 | > 50 µM (inactive) | 32 | > 50
CN(Cc1nc2ccc(C(=O)NCC3CCCCC3)cc2[nH]1)C1CCCc2cccnc21 (stereo not drawn) | 0.5 µM | 6.3 | 0.4
O=C(c1cnn(-c2ccccc2)n1)N1CCCC(n2ccnc2)C1 (stereo not drawn) | > 50 µM (inactive) | > 50 | 0.63
O=C1CCCCCC1(Cc1cnc[nH]1)c1ccc(Cl)cc1Cl (stereo not drawn) | > 50 µM (inactive) | > 50 | 6.3
COc1ccc(CN2C(=O)C(O)(CC(=O)c3ccncc3)c3cc(Br)ccc32)cc1OC (stereo not drawn) | 25 µM | 40 | 20
COc1ccccc1C1CC(c2ccc(NS(C)(=O)=O)cc2)=NN1C(=O)c1cccs1 (stereo not drawn) | 4 µM | > 50 | 2.5
Cc1ccccc1NS(=O)(=O)c1ccc2[nH]cc(C(=O)NC3CCCC(C)C3C)c(=O)c2c1 (stereo not drawn) | 16 µM | 13 | 16
COc1ccc(CNc2nsc3ccccc23)cc1OC | 6.3 µM | 25 | 5
Cc1ccc2c(c1)SC(C(=O)Nc1n[nH]c(-c3ccccn3)n1)C2 (stereo not drawn) | 4 µM | 25 | 2.5
COc1ccc2ncc(=O)n(CCN3CC[C@H](NCc4ncc(Cl)c5[nH]ncc45)[C@H](O)C3)c2n1 | > 50 µM (inactive) | > 50 | > 50
CS(=O)(=O)c1ccccc1C(=O)N(Cc1ccccc1)c1ccccc1 | > 50 µM (inactive) | > 50 | 16
CC(c1cc(Cl)cc(Cl)c1)N(C)c1ncc2c(N)nc(N)nc2n1 (stereo not drawn) | 0.79 µM | 32 | 0.25
CS(=O)(=O)N1CCC(Nc2ncc(Br)c(Nc3cccc(F)c3C(N)=O)n2)CC1 | 1.6 µM | 1 | 0.79
CN(C)Cc1cccc(Nc2nccc(-c3ccc(NCCN)c(C#N)c3)n2)c1 | 1.3 µM | 6.3 | 0.5

SMILES | IC50 | IC50 [1] [µM] | IC50 [2] [µM]
Clc1ccc(OCCN2CCCCC2c2cccnc2)c(Cl)c1 (stereo not drawn) | > 50 µM (inactive) | > 50 | 5
COc1cc(NC(=O)Nc2cccc(CNC(=O)OC3CCCCC3)c2)ccc1-c1cnco1 | > 50 µM (inactive) | 10 | 20
CCC(=O)Nc1ccc(-c2nc3ccc(Cl)cc3[nH]2)cc1 | > 50 µM (inactive) | > 50 | > 50
O=C(CN(Cc1ccccn1)Cc1ccccn1)NCc1ccc(-c2csnn2)cc1 | 5 µM | > 79 | 5
COc1ccc(S(=O)(=O)NC(C)C)cc1Nc1ncc(-c2cccc(F)c2)cn1 | > 50 µM (inactive) | > 50 | > 50
O=C(NCCc1ccccc1Cl)c1cccn1-c1cccnc1 | > 50 µM (inactive) | > 50 | > 50
O=C(NNC(=O)c1ccccn1)c1ccc(-c2ccccc2)cc1 | 6.3 µM | 3.2 | 3.2
Clc1cc(Br)ccc1OCCCCn1ccnc1 | 25 µM | 32 | 6.3
O=C(Nc1nc(-c2ccc(F)cc2)cs1)c1ccc([N+](=O)[O-])s1 | 1.3 µM | 7.9 | 1
CC1CN(S(=O)(=O)c2ccc(NC(=O)c3cc(C4CC4)nc4c3cnn4C(C)C)cc2)CC(C)O1 (stereo not drawn) | > 50 µM (inactive) | 10 | > 50
CN1CCC(N(C)c2nccc(N3CCN(C(=O)c4cccc(-c5cccnc5)c4)CC3)n2)CC1 | 1.3 µM | 7.9 | 1.3
O=C(CCCn1cnc([N+](=O)[O-])n1)Nc1cccc(Cl)c1 | > 50 µM (inactive) | > 50 | > 50
O=C(NCC1CCCCC1)c1cnns1 | > 50 µM (inactive) | > 50 | 10
CC(=O)Nc1ccc(CN2CCC(N3CC(c4ccccc4)(c4ccccc4)OCC3=O)CC2)cc1 | 25 µM | 40 | 20
Clc1ccc(CN2CCN(C3=NCCN3)CC2)cc1Cl | > 50 µM (inactive) | > 50 | > 50
COc1ccc(C(C)(C)C)cc1S(=O)(=O)n1ccnc1 | > 50 µM (inactive) | > 50 | 25
O=S1N=C(NCCCN(Cc2ccc(F)cc2)c2ccccn2)C(NCc2ccncc2)=N1 (stereo not drawn) | > 50 µM (inactive) | 25 | 25
COc1ncc(-c2ccc3nccc(-c4ccncc4)c3c2)cc1NS(C)(=O)=O | 2.5 µM | 3.2 | 0.63
C[C@@H](Oc1cc(-n2cnc3ccc(CC(O)CO)cc32)sc1C(N)=O)c1ccccc1Cl (stereo partly drawn) | 40 µM | 40 | 32
NC(N)=Nc1nc(-c2ccc(NC(N)=NCCN3CCCC3)cc2)cs1 | > 50 µM (inactive) | > 50 | > 50
Cc1nc(-c2nc(NCc3ccc(Cl)cc3)c3cccnc3c2O)n[nH]1 | 0.5 µM | 6.3 | 0.5
Fc1ccccc1N1C[C@H]2CCN(c3cccnc3)C[C@H]2C1 | > 50 µM (inactive) | > 50 | 
O=C(NCC1CCCCC1)c1cc(=O)c2ccccc2o1 | 16 µM | < 50 | 6.3

SMILES | IC50 | IC50 [1] [µM] | IC50 [2] [µM]
COc1cccc(-c2cc(C(F)(F)F)nc(-n3ccc([N+](=O)[O-])n3)n2)c1 | > 50 µM (inactive) | > 50 | > 50
CCNc1cc(-c2ccccn2)nc(Nc2ccccc2)n1 | 0.79 µM | 20 | 0.63
NC(=O)c1ncc(N[C@@H]2CCCNC2)nc1Nc1cccc(Cl)c1 | 0.79 µM | 2 | 0.5
CCC(CC)C(=O)Nc1ccc(-c2nnc(-c3ccc(OC)cc3)o2)cc1 | > 50 µM (inactive) | > 50 | > 50
O=C(CN(c1cccc(C(F)(F)F)c1)S(=O)(=O)c1ccc(Cl)cc1)NCc1ccc(F)c(F)c1 | > 50 µM (inactive) | 20 | > 50
Cc1nnnn1-c1cccc(C(=O)N2CCC[C@@]3(C)c4ncncc4CCC23)c1 (stereo partly drawn) | > 50 µM (inactive) | > 50 | 6.3
Cc1ccc2onc(Nc3ccnc(Nc4cccc(S(C)(=O)=O)c4)n3)c2c1 | 2 µM | 20 | 1
COc1ccc(NS(=O)(=O)c2cc(-c3cc(C)[nH]n3)ccc2C)cc1OC | 10 µM | > 50 | 7.9
O=C(Nc1nccs1)c1ccccc1Cn1cc([N+](=O)[O-])cn1 | > 50 µM (inactive) | > 50 | > 50
c1ccc2sc(Nc3nc4ncccc4[nH]3)nc2c1 | 2.5 µM | 16 | 1.3
Nc1nc(-c2ccccn2)nc(-n2nc(-c3ccccc3)cc2N)n1 | 0.79 µM | 10 | 0.79
c1cncc(CN(Cc2ccco2)Cc2cn[nH]c2-c2cccs2)c1 | > 50 µM (inactive) | 20 | 1.3
O=C(Cn1cnc([N+](=O)[O-])n1)Nc1ccc(Cl)cc1C(=O)c1ccccc1 | > 50 µM (inactive) | > 50 | > 50
O=C(N1CCc2ccccc2CC1)C1(C(=O)N2CCC(n3c(=O)[nH]c4ncccc43)CC2)CC1 | > 50 µM (inactive) | > 50 | > 50
CC(Cn1ccnc1)NC(=O)C1CC1c1cccc(Cl)c1Cl (stereo not drawn) | > 50 µM (inactive) | > 50 | 10
COc1ccc(Cc2nc(-c3ncc4cccnc4c3O)n[nH]2)cc1OC | 3.2 µM | 20 | 2.5
COc1ccc(OC)c(NC(=O)c2ccc([N+](=O)[O-])o2)c1 | 32 µM | 20 | 16
Cc1ccccc1CNc1cc(C2CC2)nc(-c2nccn2C)n1 | 0.63 µM | 10 | 0.63
N#Cc1ccc(C(=O)Nc2cccc(-c3cccc(CN4CCC(O)CC4)c3)c2)cc1 | 16 µM | 16 | 7.9
COc1ccc2nc(N(Cc3cccnc3)C(=O)C3CCC3)sc2c1 | > 50 µM (inactive) | > 50 | 50
O=C(c1cc2cc(Cl)ccc2[nH]1)N1CCCCC1c1cccnc1 (stereo not drawn) | 32 µM | 16 | 10
Cc1cc(NC(=O)C2CCCCC2)n(-c2nc3c(c(=O)[nH]2)CCC3)n1 | 5 µM | 10 | 3.2
